These are literature values, as cited in paper PMC7465340, “Preparation and Evaluation of Eudragit L100-PEG Proliponiosomes for Enhanced Oral Delivery of Celecoxib” (Pharmaceutics, 2020).

Converted amounts (≈) assume the structure as drawn. Like-named read-outs stand apart in the source and are kept apart here.

With `Cc1ccc(-c2cc(C(F)(F)F)nn2-c2ccc(S(N)(=O)=O)cc2)cc1` [CXB, Celecoxib], the “solubility in aqueous media” value (pH 1.2) was 1.4 µg/mL (≈ 3.67 µM). Further, under “pH 6.8”, the “solubility in aqueous media” value was 1.2 µg/mL (≈ 3.15 µM) and the “solubility of free CXB” value is reported as “≈ 1.23 ± 0.05 μg/mL”.
